Data published in patent US12697366B2, “Thermogenic compositions and methods” (Ohio State Innovation Foundation, priority 2016, dated 2026).

Tests used:
STZ mice = assay: AAC2, INS and AAC2-INS treatment of STZ mice (streptozotocin-induced type 1 diabetes); conditions: mouse, in vivo
Protocol: The untreated STZ mice died 32 days after STZ induction of experimental type 1 diabetes. […] Liver toxicity was measured by plasma levels of liver enzyme aspartate aminotransferase (AST).
Human INS was used for treatment to distinguish from endogenous mouse INS. […] Insulin tolerance test (ITT) was used to assess insulin sensitivity. […] Glucose tolerance test (GTT) was used to assess glucose tolerance.
[…] SLC6A6 is a principal transporter for neurotransmitter and osmolyte taurine, in all treated STZ mice. […] MVK a key kinase in cholesterol synthesis pathway. […] GPX6 a key antioxidant enzyme induced in the liver in response to oxidative stress.
Cognitive performance was measured using Barnes maze behavioral test to measure spatial learning (escape latency (60B) and number of errors (60C)) and memory (60D).

ob/ob mice = assay: Study 4 (Example 2): EREG injected into epididymal iAb fat of ob/ob mice; type: in vivo, mouse
Protocol: 6-week old Ob/Ob male mice, purchased from the Jackson laboratory (n=10), were fed a high fat diet (HF, 45% kcal from fat, D12451, Research Diet Inc., New Brunswick, NJ) for 30 days and then randomly assigned into two groups: • 1) a control group injected with 0.1 mL sterile PBS into both epididymal iAb fat (n=5), and • 2) EREG-treated group injected with 60 ng EREG per epididymal iAb fat depot (n=5). Mice were injected with 0.1 mL sterile PBS, containing 600 ng EREG/mL. These mice were pair fed and individually housed during injections. […] Metabolic measurements were performed as described in 2.5. WAT were collected for protein, mRNA, and histology. Metabolic parameters in study 2.3 and 2.4 were measured by indirect calorimetry (CLAMS, Columbus Instruments, Columbus, OH) at ambient temperature (22° C.) with 12 h light/dark cycles. Animals were fed the same HF diet and water provided ad libitum. Mice were placed individually and allowed to acclimatize in the chambers for 12 h, and O2 consumption, CO2 production, energy expenditure, and locomotor activity were measured for 24 h. Then temperature was changed to 4° C. for 6 h. […] GTT was performed in overnight fasted Ob/Ob mice (study 4, N=5 per group) by intraperitoneal injection of 0.004 mL 25% glucose/g body weight. One week after GTT, an ITT test was performed in same overnight fasted mice. They were injected with a single intraperitoneal insulin dose (1 mU of insulin/g body weight). Blood glucose was measured from mouse tails by One Touch Ultra glucometer (LifeScan, Wayne, PA).

DIO mice = assay: Study 3 (Example 2): EREG injected into epididymal iAb fat of DIO mice; type: in vivo, mouse
Protocol: 6-week old C57BL6/J male mice (WT) were fed a high fat diet (HF, 45% kcal from fat, D12451, Research Diet Inc., New Brunswick, NJ) for 30 days. Then mice were randomly assigned for • 1) a control group injected with 0.1 mL sterile phosphate buffered saline (PBS) into both epididymal iAb fat (n=7), and • 2) EREG-treated group injected with 20 ng EREG per epididymal iAb fat depot (n=7). Mice were injected with 0.1 mL sterile PBS, containing 200 ng EREG/mL. Mice were individually housed and pair fed when injection started. Mice were injected every other day for 2 weeks. Metabolic measurements were performed as described in 2.5. WAT were collected for protein, mRNA, and histology. Metabolic parameters in study 2.3 and 2.4 were measured by indirect calorimetry (CLAMS, Columbus Instruments, Columbus, OH) at ambient temperature (22° C.) with 12 h light/dark cycles. Animals were fed the same HF diet and water provided ad libitum. Mice were placed individually and allowed to acclimatize in the chambers for 12 h, and O2 consumption, CO2 production, energy expenditure, and locomotor activity were measured for 24 h. Then temperature was changed to 4° C. for 6 h. […] NanoString's nCounter analysis system performed direct detection of target molecules from a single sample using color-coded molecular barcodes, giving a digital quantification of the number of target molecules. A custom panel containing Ereg, thermogenic genes, and PPARα-target genes was designed and used for simultaneous quantification of 37 genes including housekeeping genes. All data were normalized to 3 housekeeping genes Gapdh, Pgk1, and Tubb quantified in the same samples using nSolver Software. Total mRNA (100 ng in 5 μl) was hybridized overnight with nCounter Reporter (20 μl) probes in hybridization buffer and in an excess of nCounter Capture probes (5 μL) at 65° C. for 16-20 h. The hybridization mixture containing target/probe complexes was allowed to bind to magnetic beads containing complementary sequences on the Capture Probe. After each target found a probe pair, excess probes were washed followed by sequential binding to sequences on the Reporter Probe. Biotinylated capture probe-bound samples were immobilized and recovered on a streptavidin-coated cartridge. The abundance of specific target molecules was then quantified using the nCounter Digital Analyzer. Individual fluorescent barcodes and target molecules present in each sample were recorded with a CCD camera by performing a high-density scan (600 fields of view). Images were processed internally into a digital format and were normalized using the NanoString nSolver software analysis tool. Counts were normalized for all target RNAs in all samples based on the positive control RNA to account for differences in hybridization efficiency and post-hybridization processing, purification, and immobilization of complexes. The average was normalized by background counts (the average of the eight negative control counts) for each sample. Subsequently, a normalization of mRNA content was performed based on Gapdh, Pgk1, and Tubb internal reference housekeeping genes. Plasma FFA and TG were measured in plasma samples from study 3, using kits from Wako Diagnostics (Mountain View, CA). Plasma samples were collected from mice in Study 3 and analyzed using a mouse leptin ELISA Kit (Alpco, Salem, NH) according to manufacturer's instruction. The absorbance (450 nm) was measured using Synergy H1 Hybrid Multi-Mode Microplate Reader. Insulin levels were measured in plasma from mice in Study 4 using an ultra-sensitive mouse insulin ELISA kit (Crystal Chem, Downers Grove, IL) according to manufacturer's instruction.

## insulin: insulin (bovine or human)
STZ mice
  expression of Glutathone peroxidase (GPX6): significantly increased
  expression of insulin 1 gene (Ins1) in the brain: detrimental suppression

## EREG: Epiregulin, member of the epidermal growth factor family; recombinant mouse or human protein
ob/ob mice; EREG-treated vs control
  RER during the light cycle: significantly lower
  activity after transition from ambient temperature to the cold: higher
ob/ob mice; after 6 weeks of treatment with EREG
  weight gain: reduced
ob/ob mice; between groups
  expression of PPARα target genes and mitochondrial genes in iAb fat: similar
  metabolic rate before and during cold exposure: identical
  response to insulin (ITT): similar
ob/ob mice; compared to non-treated group
  glucose tolerance (GTT): markedly improved
ob/ob mice; mouse, in vivo
  weight of BAT, WAT depot and liver: not associated with significant changes
ob/ob mice; pair-fed HF diet
  food intake: identical
DIO mice; CLAMS
  metabolic rate at ambient temperature and after cold exposure: increase
DIO mice; EREG 20 ng per depot every other day, 2 weeks, infrared camera
  body temperature in the abdominal area: profound effects
DIO mice; HF diet
  weight gain: prevented
DIO mice; NanoString
  expression of PPARα target genes Mcat and Cpt2 in iAb fat: increased
  expression of pro-inflammatory genes Tnfa and Mcp1 in iAb fat: suppressed
  expression of thermogenic genes (Dio2, Pgc1a, Cidea, Rip140) and CoxIV in iAb fat: significantly increased
DIO mice; before and after cold exposure
  light and dark period activity: did not influence
DIO mice; between groups
  Lep expression in iAb fat: similar
  levels of BAT marker Prdm16 in iAb fat: similar
DIO mice; both groups
  food consumption: similar
DIO mice; compared to control group
  decrease of circulating triglyceride levels: 48%
DIO mice; mouse, in vivo
  increase in Ucp1 and Pparg expression in iAb fat: did not reach statistical significance
  less iAb fat than non-treated mice: 32%
DIO mice; normalized to body weight
  liver, BAT and subcutaneous WAT weight: did not influence
DIO mice; plasma, ELISA
  levels of secreted LEP, higher than in non-treated mice: 215%
DIO mice; treated vs non-treated
  RER: similar
DIO mice; vs control group
  increase in non-esterified fatty acid in the circulation: 580%
  time to maximal metabolic rate plateau during cold exposure: significantly shorter
